Data: patent publication US8901118B2, “Compounds and methods for kinase modulation, and indications therefor” (Plexxikon Inc., priority 2010, dated 2014)

Experiments:
[1] = biological target: CYP2C19 (Homo sapiens, UniProt P33261); test: CYP2C19 inhibition (fluorescent substrate CEC); format: in vitro ADME; details: read-out: Cyp IC50 2C19
Method in brief: (§1)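 10-pt 1:1 dilution series (from 100 mM DMSO stock) in NADPH regen cofactor mix, 5% MeCN; 10 min preincubation at 37 °C. Enzyme reaction 37 °C: 1A2 15 min, 2C9 45 min, 2C19/2D6 30 min. Fluorescence readout; IC50 fit.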

[2] = biological target: T1, CYP1A2 (Homo sapiens, UniProt P05177); test: CYP1A2 inhibition (fluorescent substrate CEC); format: in vitro ADME; details: read-out: Cyp IC50 1A2
T1 sequence (P05177 1-516): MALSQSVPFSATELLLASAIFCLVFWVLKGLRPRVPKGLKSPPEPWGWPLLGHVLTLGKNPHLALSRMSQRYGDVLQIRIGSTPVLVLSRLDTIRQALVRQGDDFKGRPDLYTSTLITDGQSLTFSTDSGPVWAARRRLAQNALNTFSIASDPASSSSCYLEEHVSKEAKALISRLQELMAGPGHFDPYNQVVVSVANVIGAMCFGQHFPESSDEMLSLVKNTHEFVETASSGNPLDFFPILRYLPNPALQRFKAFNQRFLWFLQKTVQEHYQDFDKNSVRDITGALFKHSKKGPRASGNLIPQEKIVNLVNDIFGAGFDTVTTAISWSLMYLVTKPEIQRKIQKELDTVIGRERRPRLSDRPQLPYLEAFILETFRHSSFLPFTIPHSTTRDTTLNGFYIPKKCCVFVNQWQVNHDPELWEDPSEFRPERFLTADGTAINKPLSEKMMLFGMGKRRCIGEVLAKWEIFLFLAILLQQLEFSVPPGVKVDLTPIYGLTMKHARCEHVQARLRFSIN
Method in brief: as §1

[3] = biological target: T2, BCR-KIT BaF3 cells (Homo sapiens, UniProt P10721); test: BaF3 BCR-KIT cell proliferation assay (ATPlite); format: cell-based; details: read-out: Inhibition of Cell Proliferation IC50, BCR/BaF3 Kit
T2 construct: fused on or other part: P11274 (Breakpoint cluster region protein)
Method in brief: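 Cells are plated overnight: BaF3 at 10,000/well in G418 medium without WEHI/IL-3, MV-4-11 at 25,000/well in IMDM with 10% FBS. An 8-point 1:3 compound titration (10 μM top) is then added, and plates are incubated 3 days at 37 °C before ATPlite readout and IC50 determination.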

T2 sequence (P10721 589-937): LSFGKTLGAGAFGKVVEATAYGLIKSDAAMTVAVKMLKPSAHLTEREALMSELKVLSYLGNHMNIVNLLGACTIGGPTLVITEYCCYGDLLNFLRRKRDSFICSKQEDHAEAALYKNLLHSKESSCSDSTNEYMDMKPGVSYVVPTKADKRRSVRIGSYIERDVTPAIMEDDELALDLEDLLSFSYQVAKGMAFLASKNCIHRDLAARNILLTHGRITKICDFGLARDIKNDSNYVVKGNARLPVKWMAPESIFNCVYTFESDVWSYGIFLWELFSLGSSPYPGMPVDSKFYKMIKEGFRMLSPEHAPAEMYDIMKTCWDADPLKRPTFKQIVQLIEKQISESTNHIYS
Chain of CYP2C19 (P33261 whole entry): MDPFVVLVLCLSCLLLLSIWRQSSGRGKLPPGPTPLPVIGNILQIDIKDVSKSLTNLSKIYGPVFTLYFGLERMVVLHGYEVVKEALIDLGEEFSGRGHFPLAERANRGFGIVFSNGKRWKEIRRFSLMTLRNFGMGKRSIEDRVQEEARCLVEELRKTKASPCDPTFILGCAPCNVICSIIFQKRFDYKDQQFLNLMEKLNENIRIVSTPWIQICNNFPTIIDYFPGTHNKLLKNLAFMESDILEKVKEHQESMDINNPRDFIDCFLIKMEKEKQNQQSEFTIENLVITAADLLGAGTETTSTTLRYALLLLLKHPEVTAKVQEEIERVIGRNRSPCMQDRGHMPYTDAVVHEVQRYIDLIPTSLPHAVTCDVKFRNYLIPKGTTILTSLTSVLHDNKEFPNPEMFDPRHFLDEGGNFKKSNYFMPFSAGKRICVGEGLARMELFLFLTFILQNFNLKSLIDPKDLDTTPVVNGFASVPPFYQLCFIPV

IC50 [1]	IC50 [2]	IC50 [3]	Structure (SMILES)
> 10 µM	> 10 µM	> 1 µM	Clc1cnc2[nH]cc(Cc3cnc(NC4CCCCC4)nc3)c2c1 [Compound P-3001, [5-(5-chloro-1H-pyrrolo[2,3-b]pyridin-3-ylmethyl)-pyrimidin-2-yl]-cyclohexyl-amine]
> 10 µM	> 10 µM	> 1 µM	CCn1cc(Nc2ccc(Cc3c[nH]c4ncnc(OC)c34)c(F)n2)cn1 [Compound P-4011, (1-Ethyl-1H-pyrazol-4-yl)-[6-fluoro-5-(4-methoxy-7H-pyrrolo[2,3-d]pyrimidin-5-ylmethyl)-pyridin-2-yl]-amine]
5 to 10 µM	> 10 µM	< 1 µM	COc1ccc(Nc2ccc(C(=O)c3c[nH]c4ncnc(C5CC5)c34)c(F)n2)cn1 [Compound P-4022, (4-cyclopropyl-7H-pyrrolo[2,3-d]pyrimidin-5-yl)-[2-fluoro-6-(6-methoxy-pyridin-3-ylamino)-pyridin-3-yl]-methanone]
> 10 µM	> 10 µM	< 1 µM	Cc1ccc(Nc2ccc(C(=O)c3c[nH]c4ncnc(C5CC5)c34)c(F)n2)cn1 [Compound P-4031, (4-Cyclopropyl-7H-pyrrolo[2,3-d]pyrimidin-5-yl)-[2-fluoro-6-(6-methyl-pyridin-3-ylamino)-pyridin-3-yl]-methanone]
> 10 µM	> 10 µM	< 0.1 µM	Cc1cnc2[nH]cc(Cc3cnc(Nc4ccc(C(F)(F)F)nc4)nc3)c2c1 [Compound P-3018, [5-(5-Methyl-1H-pyrrolo[2,3-b]pyridin-3-ylmethyl)-pyrimidin-2-yl]-(6-trifluoromethyl-pyridin-3-yl)-amine]
> 10 µM	> 10 µM	< 1 µM	CCOc1ccc(Nc2ccc(Cc3c[nH]c4ncc(C)cc34)c(F)n2)cn1 [Compound P-3039, (6-ethoxy-pyridin-3-yl)-[6-fluoro-5-(5-methyl-1H-pyrrolo[2,3-b]pyridin-3-ylmethyl)-pyridin-2-yl]-amine]
> 10 µM	> 10 µM	< 1 µM	CCOc1ccc(Nc2ccc(Cc3c[nH]c4ncnc(OCCOC)c34)c(F)n2)cn1 [Compound P-4008, (6-Ethoxy-pyridin-3-yl)-{6-fluoro-5-[4-(2-methoxy-ethoxy)-7H-pyrrolo[2,3-d]pyrimidin-5-ylmethyl]-pyridin-2-yl}-amine]
> 10 µM	> 10 µM	< 1 µM	Cc1cnc2[nH]cc(Cc3ccc(Nc4ccc(C5CC5)nc4)nc3F)c2c1 [Compound P-3050, (6-Cyclopropyl-pyridin-3-yl)-[6-fluoro-5-(5-methyl-1H-pyrrolo[2,3-b]pyridin-3-ylmethyl)-pyridin-2-yl]-amine]
> 10 µM	> 10 µM	< 1 µM	Cc1ccc(Nc2ccc(C(=O)c3c[nH]c4ncc(Cl)cc34)c(F)n2)cn1 [Compound P-3044, (5-Chloro-1H-pyrrolo[2,3-b]pyridin-3-yl)-[2-fluoro-6-(6-methyl-pyridin-3-ylamino)-pyridin-3-yl]-methanone]
> 10 µM	> 10 µM	> 1 µM	COc1ccc(Nc2ccc(C(=O)c3c[nH]c4ncc(C)cc34)c(F)n2)cn1 [Compound P-3040, [2-Fluoro-6-(6-methoxy-pyridin-3-ylamino)-pyridin-3-yl]-(5-methyl-1H-pyrrolo[2,3-b]pyridin-3-yl)-methanone]
> 10 µM	> 10 µM	< 0.1 µM	CCc1ccc(Nc2ccc(C(=O)c3c[nH]c4ncnc(C5CC5)c34)c(F)n2)cn1 [Compound P-4029, (4-Cyclopropyl-7H-pyrrolo[2,3-d]pyrimidin-5-yl)-[6-(6-ethyl-pyridin-3-ylamino)-2-fluoro-pyridin-3-yl]-methanone]
> 10 µM	> 10 µM	> 1 µM	Clc1cnc2[nH]cc(Cc3cnc(NC4CCCCCC4)nc3)c2c1 [Compound P-3006, [5-(5-Chloro-1H-pyrrolo[2,3-b]pyridin-3-ylmethyl)-pyrimidin-2-yl]-cycloheptyl-amine]
< 5 µM	> 10 µM	< 1 µM	COc1ccc(Nc2ccc(Cc3c[nH]c4ncc(C)cc34)c(F)n2)cn1 [Compound P-3019, [6-fluoro-5-(5-methyl-1H-pyrrolo[2,3-b]pyridin-3-ylmethyl)-pyridin-2-yl]-(6-methoxy-pyridin-3-yl)-amine]
> 10 µM	> 10 µM	> 1 µM	COCCOc1ncnc2[nH]cc(Cc3ccc(Nc4ccc(C)nc4)nc3F)c12 [Compound P-4015, {6-Fluoro-5-[4-(2-methoxy-ethoxy)-7H-pyrrolo[2,3-d]pyrimidin-5-ylmethyl]-pyridin-2-yl}-(6-methyl-pyridin-3-yl)-amine]
> 10 µM	> 10 µM	< 1 µM	CCn1cc(Nc2ccc(Cc3c[nH]c4ncnc(C)c34)c(F)n2)cn1 [Compound P-4013, (1-Ethyl-1H-pyrazol-4-yl)-[6-fluoro-5-(4-methyl-7H-pyrrolo[2,3-d]pyrimidin-5-ylmethyl)-pyridin-2-yl]-amine]
5 to 10 µM	5 to 10 µM	< 1 µM	CCn1cc(Nc2ccc(Cc3c[nH]c4ncnc(C5CC5)c34)c(F)n2)cn1 [Compound P-4036, [5-(4-Cyclopropyl-7H-pyrrolo[2,3-d]pyrimidin-5-ylmethyl)-6-fluoro-pyridin-2-yl]-(1-ethyl-1H-pyrazol-4-yl)-amine]
> 10 µM	> 10 µM	< 0.1 µM	CCn1cc(Nc2ccc(C(=O)c3c[nH]c4ncnc(C5CC5)c34)c(F)n2)cn1 [Compound P-4037, (4-Cyclopropyl-7H-pyrrolo[2,3-d]pyrimidin-5-yl)-[6-(1-ethyl-1H-pyrazol-4-ylamino)-2-fluoro-pyridin-3-yl]-methanone]
> 10 µM	> 10 µM	< 1 µM	Cc1cnc2[nH]cc(Cc3ccc(Nc4ccc(C)nc4)nc3F)c2c1 [Compound P-3041, [6-Fluoro-5-(5-methyl-1H-pyrrolo[2,3-b]pyridin-3-ylmethyl)-pyridin-2-yl]-(6-methyl-pyridin-3-yl)-amine]
< 5 µM	> 10 µM	> 1 µM	Fc1nc(Nc2ccc(C3CC3)nc2)ccc1Cc1c[nH]c2ncnc(NCC(F)(F)F)c12 [Compound P-4130, 5-[[6-[(6-cyclopropyl-3-pyridyl)amino]-2-fluoro-3-pyridyl]methyl]-N-(2,2,2-trifluoroethyl)-7H-pyrrolo[2,3-d]pyrimidin-4-amine]
> 10 µM	> 10 µM	< 1 µM	CCc1ccc(Nc2ccc(Cc3c[nH]c4ncnc(OC)c34)c(F)n2)cn1 [Compound P-4007, (6-Ethyl-pyridin-3-yl)-[6-fluoro-5-(4-methoxy-7H-pyrrolo[2,3-d]pyrimidin-5-ylmethyl)-pyridin-2-yl]-amine]
> 10 µM	> 10 µM	< 0.1 µM	COc1ncnc2[nH]cc(Cc3ccc(Nc4ccc(C5CC5)nc4)nc3F)c12 [Compound P-4004, (6-Cyclopropyl-pyridin-3-yl)-[6-fluoro-5-(4-methoxy-7H-pyrrolo[2,3-d]pyrimidin-5-ylmethyl)-pyridin-2-yl]-amine]
> 10 µM	> 10 µM	< 0.1 µM	CCOc1ccc(Nc2ccc(Cc3c[nH]c4ncnc(OC)c34)c(F)n2)cn1 [Compound P-4005, (6-Ethoxy-pyridin-3-yl)-[6-fluoro-5-(4-methoxy-7H-pyrrolo[2,3-d]pyrimidin-5-ylmethyl)-pyridin-2-yl]-amine]
5 to 10 µM	> 10 µM	< 1 µM	CCc1ccc(Nc2ccc(Cc3c[nH]c4ncnc(C)c34)c(F)n2)cn1 [Compound P-4009, (6-Ethyl-pyridin-3-yl)-[6-fluoro-5-(4-methyl-7H-pyrrolo[2,3-d]pyrimidin-5-ylmethyl)-pyridin-2-yl]-amine]
> 10 µM	> 10 µM	< 1 µM	COc1ncnc2[nH]cc(Cc3ccc(Nc4ccc(C)nc4)nc3F)c12 [Compound P-4010, [6-Fluoro-5-(4-methoxy-7H-pyrrolo[2,3-d]pyrimidin-5-ylmethyl)-pyridin-2-yl]-(6-methyl-pyridin-3-yl)-amine]
> 10 µM	> 10 µM	–	Fc1nc(Nc2ccc(C3CC3)nc2)ccc1Cc1c[nH]c2ncccc12 [Compound P-3053, (6-Cyclopropyl-pyridin-3-yl)-[6-fluoro-5-(1H-pyrrolo[2,3-b]pyridin-3-ylmethyl)-pyridin-2-yl]-amine]
5 to 10 µM	> 10 µM	–	O=C(c1ccc(Nc2ccc(C3CC3)nc2)nc1F)c1c[nH]c2ncccc12 [Compound P-3052, [6-(6-Cyclopropyl-pyridin-3-ylamino)-2-fluoro-pyridin-3-yl]-(1H-pyrrolo[2,3-b]pyridin-3-yl)-methanone]
